The text below walks through data of ChEMBL document CHEMBL5506059, “Cyanomethylquinolones as a New Class of Potential Multitargeting Broad-Spectrum Antibacterial Agents” (J Med Chem, 2024).

Holding throughout (format): functional
The subject of experiment [1] is Pseudomonas aeruginosa. The experiment is described as follows: Antibacterial activity against Pseudomonas aeruginosa ATCC 27853 assessed as inhibition of bacterial growth incubated for 24 hrs.
Experiment [2] concerns Staphylococcus aureus. The experiment is described as follows: Antibacterial activity against methicillin resistant Staphylococcus aureus clinical isolate assessed as inhibition of bacterial growth incubated for 24 hrs.
The subject of experiment [3] is Staphylococcus aureus. The experiment is described as follows: Antibacterial activity against Staphylococcus aureus clinical isolate assessed as inhibition of bacterial growth incubated for 24 hrs.
The test system of a further experiment is Acinetobacter baumannii. The experiment is described as follows: Antibacterial activity against Acinetobacter baumannii clinical isolate assessed as inhibition of bacterial growth incubated for 24 hrs.
The subject of experiment [4] is Escherichia coli. The experiment is described as follows: Antibacterial activity against Escherichia coli ATCC 25922 assessed as inhibition of bacterial growth incubated for 24 hrs.
The subject of a further experiment is Enterococcus faecalis. The experiment is described as follows: Antibacterial activity against Enterococcus faecalis clinical isolate assessed as inhibition of bacterial growth incubated for 24 hrs.
In experiment [5] the test system is Staphylococcus aureus. The experiment is described as follows: Antibacterial activity against Staphylococcus aureus ATCC 25923 assessed as inhibition of bacterial growth incubated for 24 hrs.
Experiment [6] deals with Staphylococcus aureus. The experiment is described as follows: Antibacterial activity against Staphylococcus aureus ATCC 29213 assessed as inhibition of bacterial growth incubated for 24 hrs.
In experiment [7] the test system is Escherichia coli. The experiment is described as follows: Antibacterial activity against Escherichia coli clinical isolate assessed as inhibition of bacterial growth incubated for 24 hrs.
The subject of another experiment is Klebsiella pneumoniae. The experiment is described as follows: Antibacterial activity against Klebsiella pneumoniae clinical isolate assessed as inhibition of bacterial growth incubated for 24 hrs.
Experiment [8] concerns Pseudomonas aeruginosa. The experiment is described as follows: Antibacterial activity against Pseudomonas aeruginosa clinical isolate assessed as inhibition of bacterial growth incubated for 24 hrs.

In brackets after ≈: the same amount, converted by molar mass.

In the case of `N#CCc1cc2c(cc1F)c(=O)c(C(=O)O)cn2CC(=O)N1CCCCC1`, the MIC (usually the lowest concentration found to suppress growth) was 4 µg/mL (≈ 10.8 µM) in the experiment on Pseudomonas aeruginosa [1]; 4 µg/mL (≈ 10.8 µM) in the experiment on Staphylococcus aureus [2]; 128 µg/mL (≈ 345 µM) with Staphylococcus aureus [3]; 64 µg/mL (≈ 172 µM) with Acinetobacter baumannii; 4 µg/mL (≈ 10.8 µM) in the experiment with Escherichia coli [4]; 64 µg/mL (≈ 172 µM) with Enterococcus faecalis. Moreover, the MIC in the experiment with Staphylococcus aureus [5] worked out at 16 µg/mL (≈ 43.1 µM); in the experiment with Staphylococcus aureus [6], 4 µg/mL (≈ 10.8 µM); with Escherichia coli [7], 16 µg/mL (≈ 43.1 µM); in the experiment on Klebsiella pneumoniae, 16 µg/mL (≈ 43.1 µM); in the experiment with Pseudomonas aeruginosa [8], 1 µg/mL (≈ 2.69 µM).

In the case of `Cc1ccc(Cn2cc(C(=O)O)c(=O)c3cc(F)c(CC#N)cc32)cc1`, the MIC stood at 4 µg/mL (≈ 11.4 µM) in the experiment on Pseudomonas aeruginosa [1]; 8 µg/mL (≈ 22.8 µM) with Staphylococcus aureus [2]; 256 µg/mL (≈ 731 µM) in the experiment on Staphylococcus aureus [3]; 256 µg/mL (≈ 731 µM) with Acinetobacter baumannii; 0.25 µg/mL (≈ 0.714 µM) with Escherichia coli [4]; 4 µg/mL (≈ 11.4 µM) in the experiment with Enterococcus faecalis. Also, the MIC stood at 0.25 µg/mL (≈ 0.714 µM) in the experiment on Staphylococcus aureus [5]; 256 µg/mL (≈ 731 µM) in the experiment on Staphylococcus aureus [6]; 256 µg/mL (≈ 731 µM) with Escherichia coli [7]; 256 µg/mL (≈ 731 µM) in the experiment on Klebsiella pneumoniae; 0.5 µg/mL (≈ 1.43 µM) in the experiment on Pseudomonas aeruginosa [8].

For `N#CCc1cc2c(cc1F)c(=O)c(C(=O)O)cn2Cc1ccc(Cl)cc1Cl`, the MIC in the experiment with Pseudomonas aeruginosa [1] turned out to be 32 µg/mL (≈ 79 µM); with Staphylococcus aureus [2] it was 256 µg/mL (≈ 632 µM); with Staphylococcus aureus [3], 256 µg/mL (≈ 632 µM); in the experiment with Acinetobacter baumannii it was 8 µg/mL (≈ 19.7 µM); in the experiment on Escherichia coli [4] it was 1 µg/mL (≈ 2.47 µM); in the experiment with Enterococcus faecalis it was 256 µg/mL (≈ 632 µM). The MIC worked out at 0.5 µg/mL (≈ 1.23 µM) with Staphylococcus aureus [5]; 2 µg/mL (≈ 4.94 µM) in the experiment with Staphylococcus aureus [6]; 1 µg/mL (≈ 2.47 µM) in the experiment on Escherichia coli [7]; 16 µg/mL (≈ 39.5 µM) with Klebsiella pneumoniae; 0.5 µg/mL (≈ 1.23 µM) in the experiment on Pseudomonas aeruginosa [8].

Consider `N#CCc1cc2c(cc1F)c(=O)c(C(=O)O)cn2Cc1ccc(Cl)cc1`, for which the MIC is 256 µg/mL (≈ 690 µM) in the experiment with Pseudomonas aeruginosa [1]; 256 µg/mL (≈ 690 µM) with Staphylococcus aureus [2]; 256 µg/mL (≈ 690 µM) with Staphylococcus aureus [3]; 16 µg/mL (≈ 43.2 µM) with Acinetobacter baumannii; 256 µg/mL (≈ 690 µM) in the experiment with Escherichia coli [4]; 256 µg/mL (≈ 690 µM) in the experiment with Enterococcus faecalis. The MIC in the experiment with Staphylococcus aureus [5] came out at 0.5 µg/mL (≈ 1.35 µM); in the experiment on Staphylococcus aureus [6] it was 4 µg/mL (≈ 10.8 µM); with Escherichia coli [7] it was 256 µg/mL (≈ 690 µM); in the experiment with Klebsiella pneumoniae, 256 µg/mL (≈ 690 µM); in the experiment on Pseudomonas aeruginosa [8], 0.5 µg/mL (≈ 1.35 µM).

As for `CCCn1cc(C(=O)O)c(=O)c2cc(F)c(CC#N)cc21`, the minimum inhibitory concentration (MIC) in the experiment on Pseudomonas aeruginosa [1] stood at 2 µg/mL (≈ 6.94 µM); with Staphylococcus aureus [2], 1 µg/mL (≈ 3.47 µM); in the experiment on Staphylococcus aureus [3] it was 4 µg/mL (≈ 13.9 µM); with Acinetobacter baumannii it was 32 µg/mL (≈ 111 µM); in the experiment on Escherichia coli [4] it was 2 µg/mL (≈ 6.94 µM); with Enterococcus faecalis, 32 µg/mL (≈ 111 µM). Further, the MIC with Staphylococcus aureus [5] was 0.25 µg/mL (≈ 0.867 µM); in the experiment with Staphylococcus aureus [6], 4 µg/mL (≈ 13.9 µM); with Escherichia coli [7], 8 µg/mL (≈ 27.8 µM); with Klebsiella pneumoniae, 1 µg/mL (≈ 3.47 µM); with Pseudomonas aeruginosa [8] it was 0.5 µg/mL (≈ 1.73 µM).

For `N#CCc1cc2c(cc1F)c(=O)c(C(=O)O)cn2Cc1ccc(C(F)(F)F)cc1`, the minimum inhibitory concentration (MIC) worked out at 8 µg/mL (≈ 19.8 µM) with Pseudomonas aeruginosa [1]; 16 µg/mL (≈ 39.6 µM) in the experiment with Staphylococcus aureus [2]; 8 µg/mL (≈ 19.8 µM) with Staphylococcus aureus [3]; 64 µg/mL (≈ 158 µM) with Acinetobacter baumannii; 8 µg/mL (≈ 19.8 µM) with Escherichia coli [4]; 0.5 µg/mL (≈ 1.24 µM) with Enterococcus faecalis. Besides, the minimum inhibitory concentration (MIC) in the experiment with Staphylococcus aureus [5] was determined as 2 µg/mL (≈ 4.95 µM); in the experiment with Staphylococcus aureus [6], 4 µg/mL (≈ 9.89 µM); with Escherichia coli [7], 256 µg/mL (≈ 633 µM); in the experiment with Klebsiella pneumoniae, 64 µg/mL (≈ 158 µM); with Pseudomonas aeruginosa [8], 16 µg/mL (≈ 39.6 µM).

As to `CCn1cc(C(=O)O)c(=O)c2cc(F)c(CC(=O)O)cc21`, the MIC in the experiment on Pseudomonas aeruginosa [1] was determined as 2 µg/mL (≈ 6.82 µM); with Staphylococcus aureus [2] it was 64 µg/mL (≈ 218 µM); with Staphylococcus aureus [3] it was 64 µg/mL (≈ 218 µM); in the experiment with Acinetobacter baumannii, 16 µg/mL (≈ 54.6 µM); in the experiment on Escherichia coli [4], 8 µg/mL (≈ 27.3 µM); with Enterococcus faecalis, 0.5 µg/mL (≈ 1.71 µM). Further, the MIC in the experiment with Staphylococcus aureus [5] came to 16 µg/mL (≈ 54.6 µM); in the experiment on Staphylococcus aureus [6], 32 µg/mL (≈ 109 µM); with Escherichia coli [7], 8 µg/mL (≈ 27.3 µM); in the experiment on Klebsiella pneumoniae it was 1 µg/mL (≈ 3.41 µM); in the experiment with Pseudomonas aeruginosa [8], 8 µg/mL (≈ 27.3 µM).

With `N#CCc1cc2c(cc1F)c(=O)c(C(=O)O)cn2CC1CCCC1`, the MIC was found to be 128 µg/mL (≈ 390 µM) in the experiment with Pseudomonas aeruginosa [1]; 256 µg/mL (≈ 780 µM) in the experiment with Staphylococcus aureus [2]; 128 µg/mL (≈ 390 µM) with Staphylococcus aureus [3]; 128 µg/mL (≈ 390 µM) in the experiment with Acinetobacter baumannii; 256 µg/mL (≈ 780 µM) with Escherichia coli [4]; 256 µg/mL (≈ 780 µM) in the experiment on Enterococcus faecalis. Further, the MIC with Staphylococcus aureus [5] was 64 µg/mL (≈ 195 µM); with Staphylococcus aureus [6] it was 256 µg/mL (≈ 780 µM); with Escherichia coli [7] it was 32 µg/mL (≈ 97.5 µM); with Klebsiella pneumoniae, 256 µg/mL (≈ 780 µM); with Pseudomonas aeruginosa [8], 256 µg/mL (≈ 780 µM).

Consider `O=C(O)Cc1cc2c(cc1F)c(=O)c(C(=O)O)cn2Cc1ccccc1Cl`, for which the MIC worked out at 4 µg/mL (≈ 10.3 µM) in the experiment with Pseudomonas aeruginosa [1]; 32 µg/mL (≈ 82.1 µM) with Staphylococcus aureus [2]; 32 µg/mL (≈ 82.1 µM) in the experiment on Staphylococcus aureus [3]; 32 µg/mL (≈ 82.1 µM) in the experiment on Acinetobacter baumannii; 8 µg/mL (≈ 20.5 µM) with Escherichia coli [4]; 32 µg/mL (≈ 82.1 µM) in the experiment with Enterococcus faecalis. Moreover, the MIC in the experiment with Staphylococcus aureus [5] worked out at 16 µg/mL (≈ 41.1 µM); with Staphylococcus aureus [6], 8 µg/mL (≈ 20.5 µM); in the experiment with Escherichia coli [7], 32 µg/mL (≈ 82.1 µM); in the experiment on Klebsiella pneumoniae it was 0.5 µg/mL (≈ 1.28 µM); with Pseudomonas aeruginosa [8], 64 µg/mL (≈ 164 µM).

In the case of `N#CCc1cc2c(cc1F)c(=O)c(C(=O)O)cn2Cc1ccccc1`, the MIC in the experiment with Pseudomonas aeruginosa [1] was 1 µg/mL (≈ 2.97 µM); with Staphylococcus aureus [2], 8 µg/mL (≈ 23.8 µM); in the experiment with Staphylococcus aureus [3] it was 256 µg/mL (≈ 761 µM); in the experiment on Acinetobacter baumannii it was 256 µg/mL (≈ 761 µM); in the experiment with Escherichia coli [4], 0.25 µg/mL (≈ 0.743 µM); in the experiment with Enterococcus faecalis, 4 µg/mL (≈ 11.9 µM). The minimum inhibitory concentration (MIC) in the experiment with Staphylococcus aureus [5] was found to be 0.25 µg/mL (≈ 0.743 µM); in the experiment with Staphylococcus aureus [6], 0.5 µg/mL (≈ 1.49 µM); with Escherichia coli [7], 2 µg/mL (≈ 5.95 µM); in the experiment with Klebsiella pneumoniae, 0.5 µg/mL (≈ 1.49 µM); in the experiment with Pseudomonas aeruginosa [8], 0.25 µg/mL (≈ 0.743 µM).
